# From paper PMC5849406 (Pharmacological research, 2017)
# “And” between values parts separate entries of the source, which are not always exact repeats. Equal entries are not always repeated. Where two headings read alike, the source gives them in different places. Marks after values point to notes of the source that are not given here.
# How the values were obtained:
# [1] = system: NIH-Swiss mice; assay: In vivo cannabinoid tetrad; set-up: species or system mouse
# [2] = system: hCB1Rs; assay: Biased hCB1R signaling: ΔΔlog; set-up: species or system human; settings: CHO-β2-hCB1, reference CP-55,940; for GTPγS / β-Arrestin 2 (Operational) Bias Factor: 10^ΔΔlog(τ/KA); for AC / β-Arrestin 2 (Competitive) ΔΔLog(τ/KA) / AC / β-Arrestin 2 (Operational) ΔΔLog(τ/KA) / GTPγS / β-Arrestin 2 (Competitive) ΔΔLog(τ/KA) / GTPγS / β-Arrestin 2 (Operational) ΔΔLog(τ/KA): 95% confidence interval in parentheses
# [3] = molecular target: T1, hCB1Rs (Homo sapiens, UniProt P21554); assay: [^35S]GTPγS binding; assay type: biochemical; settings: for ^35S-GTPγS Binding Assay ΔLog(τ/KA): CHO-β2-hCB1, normalized to reference CP-55,940, 95% CI printed in the cell; for ^35S-GTPγS Binding Assay EMAX: fraction of the effect produced by the reference agonist CP-55,940; for EC50: read-out: ^35S-GTPγS Binding Assay EC50
# [4] = molecular target: T1, hCB1Rs; assay type: cell-based; settings: for β-Arrestin 2 Assay (Operational) ΔLog(τ/KA): normalized to reference CP-55,940; for β-Arrestin 2 Assay (Operational) Log(τ/KA): operational model; for β-Arrestin 2 Assay EMAX / β-Arrestin 2 Assay pEC50 / EC50: CHO-β2-hCB1 cells; for β-Arrestin 2 Assay EMAX: 90 min, fraction of the effect produced by the reference agonist CP-55,940; for β-Arrestin 2 Assay pEC50 / EC50: 90 min incubation; for EC50: read-out: β-Arrestin 2 Assay EC50
# [5] = molecular target: T1, hCB1Rs; assay type: binding; settings: 0.2 nM [^3H]-CP55,940; for ^3H-CP-55,940 Binding pKi: mean ± S.E.M.; for Ki: read-out: ^3H-CP-55,940 Binding Ki
# [6] = molecular target: T1, hCB1Rs; assay: Forskolin-stimulated intracellular cAMP levels; assay type: cell-based; settings: for cAMP Assay Log(τ/KA): Black-Leff operational model; for cAMP Assay pIC50 / cAMP Assay IMAX / IC50: intact CHO-β2-hCB1 cells; for cAMP Assay pIC50 / IC50: 10 µM forskolin; for cAMP Assay IMAX: fraction of the effect produced by the reference agonist CP-55,940; for IC50: read-out: cAMP Assay IC50
# [7] = molecular target: T1, hCB1Rs; assay: CB1 receptor desensitization after chronic drug exposure; assay type: cell-based; settings: CHO-hCB1-Rx cells; at 1 hr; CP-55,940 10^−7 M or PNR-4-20 10^−5 M
# [8] = system: hCB1 and hCB2Rs; settings: ref [29]; cited from earlier work
# [9] = molecular target: T1, hCB1Rs; assay: CB1 receptor down-regulation after chronic drug exposure; assay type: cell-based
# [10] = CHO-β2-hCB1, 95% CI printed in the cell
# T1 sequence (P21554 whole entry): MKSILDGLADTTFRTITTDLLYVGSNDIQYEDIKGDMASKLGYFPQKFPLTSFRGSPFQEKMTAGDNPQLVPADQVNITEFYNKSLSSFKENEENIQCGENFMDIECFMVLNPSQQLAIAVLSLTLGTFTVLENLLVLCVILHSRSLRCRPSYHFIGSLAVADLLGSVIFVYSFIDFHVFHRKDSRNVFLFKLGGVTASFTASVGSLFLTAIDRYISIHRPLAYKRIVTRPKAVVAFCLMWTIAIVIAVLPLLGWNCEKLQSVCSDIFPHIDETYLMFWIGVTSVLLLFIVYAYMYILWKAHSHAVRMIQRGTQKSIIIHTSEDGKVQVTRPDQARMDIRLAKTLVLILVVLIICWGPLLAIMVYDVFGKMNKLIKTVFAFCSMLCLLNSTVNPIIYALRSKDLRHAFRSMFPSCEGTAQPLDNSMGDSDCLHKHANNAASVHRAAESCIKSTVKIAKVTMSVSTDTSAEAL
smiles,measurement,setting,value
"Cc1c(C(=O)NN2CCCCC2)nn(-c2ccc(Cl)cc2Cl)c1-c1ccc(Cl)cc1 [rimonabant, reference compound]",reversal of PNR-4-20 tetrad effects by co-administered antagonist,"[1]; rimonabant 10 mg/kg with 100 mg/kg PNR-4-20, i.p., mice",significant reversal of the effects of PNR-4-20 on rectal temperature and catalepsy
"CCCCCCC(C)(C)c1ccc([C@@H]2C[C@H](O)CC[C@H]2CCCO)c(O)c1 [CP-55,940]",AC / β-Arrestin 2 (Competitive) Bias Factor,[2],1.00
same,AC / β-Arrestin 2 (Operational) Bias Factor,[2],1.00
same,GTPγS / β-Arrestin 2 (Competitive) Bias Factor,[2],1.00
same,GTPγS / β-Arrestin 2 (Operational) Bias Factor,[2],1.0
same,AC / β-Arrestin 2 (Competitive) ΔΔLog(τ/KA),[2],0.0
same,AC / β-Arrestin 2 (Operational) ΔΔLog(τ/KA),[2],0.0
same,GTPγS / β-Arrestin 2 (Competitive) ΔΔLog(τ/KA),[2],0.0
same,GTPγS / β-Arrestin 2 (Operational) ΔΔLog(τ/KA),[2],0.0
"CCCCCn1cc(C(=O)c2cccc3ccccc23)c2ccccc21 [JWH-018, reference compound]",^35S-GTPγS Binding Assay ΔLog(τ/KA),[3],−0.12^a (−0.69 to −0.45)
same,^35S-GTPγS Binding Assay pEC50,[3]; CHO-β2-hCB1 membranes,9.25±0.23^a
same,^35S-GTPγS Binding Assay EMAX,[3]; CHO-β2-hCB1 membranes,1.02 ± 0.10 fractional units and 1.02±0.10^a fractional units
same,EC50,[3]; CHO-β2-hCB1 membranes,0.749 nM
same,β-Arrestin 2 Assay (Operational) ΔLog(τ/KA),[4]; [10],0.18^a (−0.15 to 0.51)
same,β-Arrestin 2 Assay (Operational) Log(τ/KA),[4]; [10],7.27^a (7.20 to 7.34)
same,β-Arrestin 2 Assay EMAX,[4],1.16 ± 0.16 fractional units and 1.16±0.16^a fractional units
same,β-Arrestin 2 Assay pEC50,[4],7.17±0.08^a
same,EC50,[4],78.1 nM
same,AC / β-Arrestin 2 (Operational) Bias Factor,[2],0.21
same,CB1R bias between G protein-dependent and β-arrestin 2 signaling (in words),[2],little CB1R bias
same,GTPγS / β-Arrestin 2 (Operational) Bias Factor,[2],2.0
same,GTPγS / β-Arrestin 2 (Operational) ΔΔLog(τ/KA),[2],0.30 (−0.20 to 0.81)
same,"^3H-CP-55,940 Binding pKi",[5]; CHO-β2-hCB1 membranes,9.12±0.06^a
same,cAMP Assay Log(τ/KA),[6]; [10],8.56^b (8.17 to 8.94)
same,cAMP Assay pIC50,[6],8.82±0.15^b
same,cAMP Assay IMAX,[6],0.90±0.05^a
same,IC50,[6],1.73 nM
O=C1/C(=C/c2cn(Cc3ccc(F)cc3)c3ccccc23)N2CCC1CC2 [PNR-4-20],^35S-GTPγS Binding Assay pEC50,[3]; CHO-hCB1-Rx membranes,6.89±0.09
same,^35S-GTPγS Binding Assay ΔLog(τ/KA),[3],−1.99^b (−2.54 to −1.43)
same,^35S-GTPγS Binding Assay pEC50,[3]; CHO-β2-hCB1 membranes,7.29±0.09^b
same,^35S-GTPγS Binding Assay EMAX,[3]; CHO-β2-hCB1 membranes,1.02 ± 0.10 fractional units
same,^35S-GTPγS Binding Assay EMAX,"[3]; CHO-β2-hCB1 membranes, listed as PNR-420",1.02±0.10^a fractional units
same,EC50,[3]; CHO-hCB1-Rx membranes,130 nM
same,EC50,[3]; CHO-β2-hCB1 membranes,53.9 nM
same,β-Arrestin 2 Assay (Competitive) Log(τ/KA),"[4]; CHO-β2-hCB1, competitive operational model, 95% CI printed in the cell",4.84^b (4.53 to 5.16)
same,β-Arrestin 2 Assay (Operational) ΔLog(τ/KA),[4]; [10],−2.72^b (−3.33 to −2.10)
same,β-Arrestin 2 Assay (Operational) Log(τ/KA),[4]; [10],4.37^b (3.82 to 4.93)
same,β-Arrestin 2 Assay EMAX,[4],0.24 ± 0.02 fractional units
same,β-Arrestin 2 Assay EMAX,[4]; listed as PNR-420,0.24±0.02^b fractional units
same,β-Arrestin 2 Assay pEC50,[4],5.28±0.06^b
same,"effect on β-arrestin 2 recruitment produced by CP-55,940 (co-incubation)","[4]; CP-55,940 10^−7 M, test ligand 10^−7 to 10^−4 M",decreased
same,EC50,[4],5410 nM
same,"maximal reduction of G protein activation by CP-55,940 (10^−7 M)",[7],46.0 ± 5.8%
same,selectivity of binding between hCB1 and hCB2Rs,[8],bind relatively non-selectively to hCB1 and hCB2Rs
same,AC / β-Arrestin 2 (Competitive) Bias Factor,[2],13.5
same,AC / β-Arrestin 2 (Operational) Bias Factor,[2],29.5
same,GTPγS / β-Arrestin 2 (Competitive) Bias Factor,[2],2.5
same,GTPγS / β-Arrestin 2 (Operational) Bias Factor,[2],5.4
same,AC / β-Arrestin 2 (Competitive) ΔΔLog(τ/KA),[2],1.13 (0.7 to 1.56)
same,AC / β-Arrestin 2 (Operational) ΔΔLog(τ/KA),[2],1.47 (0.93 to 2.00)
same,GTPγS / β-Arrestin 2 (Competitive) ΔΔLog(τ/KA),[2],0.40 (0.09 to 0.89)
same,GTPγS / β-Arrestin 2 (Operational) ΔΔLog(τ/KA),[2],0.73 (0.09 to 1.36)
same,activity in the cannabinoid tetrad,"[1]; NIH-Swiss mice, 10, 30, or 100 mg/kg i.p., assessed 35 min after injection",exhibits activity consistent with that of a CB1R agonist in all four measures of the cannabinoid tetrad
same,time of peak hypothermic effects after injection,"[1]; mice, radiotelemetry pilot studies, 5-min intervals, data not shown",35 min
same,"effect of chronic exposure on KD of [^3H]-CP-55,940","[9]; 10 hr exposure, data not shown","does not alter the KD of [^3H]-CP-55,940"
same,reduction in binding (hCB1R density),"[9]; CHO-hCB1-Rx cells, 10 hrs exposure, PNR-4-20 10^−5 M",42.2 ± 1.7%
same,maximal reduction of hCB1R density,"[9]; CHO-hCB1-Rx cells, PNR-4-20 10^−5 M, 0 to 10 hrs",76.4 ± 3.6%
same,maximal reduction of CB1R density,"[9]; CHO-β2-hCB1 cells, at 2 hrs, CP-55,940 10^−7 M or PNR-4-20 10^−5 M",39.7 ± 4.9%
same,"^3H-CP-55,940 Binding pKi",[5]; CHO-hCB1-Rx membranes,7.11±0.13
same,"^3H-CP-55,940 Binding pKi",[5]; CHO-β2-hCB1 membranes,6.83±0.03^b
same,Ki,[5]; CHO-hCB1-Rx membranes,85.1 nM
same,Ki,[5]; CHO-β2-hCB1 membranes,159 nM
same,cAMP Assay Log(τ/KA),[6]; [10],6.45^c (6.02 to 6.88)
same,cAMP Assay ΔLog(τ/KA),"[6]; CHO-β2-hCB1, normalized to reference CP-55,940, 95% CI printed in the cell",−1.25^c (−1.58 to −0.93)
same,cAMP Assay pIC50,[6],"6.97±0.34^a,c"
same,cAMP Assay IMAX,[6],1.26±0.10^a
same,IC50,[6],180 nM
